Results published in US7576225B2, “6R-(3,6-dideoxy-L-arabino-hexopyranosyloxy) heptanoic acid, preparation process for the same and dauer effect thereof” (KDR Biotech. Co. Ltd., priority 2004, dated 2009).

Test system: C. elegance
Assay: Measurement of dauer formation effect activity
Format: in vivo, Caenorhabditis elegance
Experimental: Next, dauer formation effect of the compound of 6R-(3,6-dideoxy-L-arabino-hexopyranosyloxy)heptanoic acid (I), which is synthesized according to the present process of the invention, is measured using C. elegance.
That is, the dauer formation effect of the synthetic pheromone is measured using C. elegance tinder different feed, temperature and crowd density conditions from each other.
Although it should be passed from an L2 first half step or L3 second half step to an adult step in a condition where the feed and temperature (15-25° C.) are proper and the crowd density is low, when the synthetic pheromone is mixed, the step goes to dauer larva stage.
For comparison, seven C. elegances in the dauer larva and one C. elegance in the adult step are comparatively observed. […] In Picture 1, it can be noted that the C. elegance is not grown without moving.
To identify the dauer formation effect of the inventive pheromone, an activity is measured after the pheromone compound is supplied to S. basal agar culture medium without peptone (Vowels and Thomas, Genetics 130: 105-123, 1992).
The dauer formation effect activity of the inventive compound with respect to C. elegance is shown as Table 3.

## C[C@H](CCCCC(=O)O)O[C@@H]1O[C@@H](C)[C@H](O)C[C@H]1O [synthetic pheromone, 6R-(3,6-dideoxy-L-arabino-hexopyranosyloxy)heptanoic acid]
320 μg/plate of the synthetic pheromone, C. elegance
  dauer formation effect: 100%
Synthetic pheromone mixed in, proper feed and temperature (15-25° C.), low crowd density
  dauer formation effect (observation of larvae): greatly affects the dauer formation effect
